Assay results published in patent publication US11491120B2, “Pharmacological prophylactics against stress-induced affective disorders in females” (The Trustees of Columbia University in the City of New York, priority 2017, dated 2022).
“Also recorded” adds a separate entry of the source.

Tested on: female 129S6/SvEv mice
Assay: Forced swim test (FST), immobility time, after stress
Details: for p, Sal vs. drug, Fisher's PLSD: Immobility Time (min 1-6), Forced Swim Test Day 2 / p, Sal vs. drug, Fisher's PLSD: Immobility Time Average (min 3-6), Forced Swim Test Day 2: 3 day prophylactic drug
[1] = 2.5 mg/kg, 1 week prophylactic drug
[2] = 10 mg/kg, 1 week prophylactic drug
[3] = 10 mg/kg, 1 week prophylactic drug, learned helplessness stress
[4] = 30 mg/kg, 1 week prophylactic drug
[5] = Forced Swim Test Day 1, Dunnett test Sal vs. drug (2.5), 1 week prophylactic drug
[6] = Forced Swim Test Day 1, Dunnett test Sal vs. drug (10), 1 week prophylactic drug
[7] = Forced Swim Test Day 1, Dunnett test Sal vs. drug (30), 1 week prophylactic drug
[8] = Ovariectomized cohort, 1 week prophylactic drug, Forced Swim Test Day 1, OVX mice, K (10), (2R,6R)-HNK (0.025)
[9] = Ovariectomized cohort, 1 week prophylactic drug, Forced Swim Test Day 1, Sham mice, K (10), (2R,6R)-HNK (0.025)
[10] = Ovariectomized cohort, 1 week prophylactic drug, Forced Swim Test Day 1, Sham vs OVX, same drug, K (10), (2R,6R)-HNK (0.025)

CNC1(c2ccccc2Cl)CCCCC1=O (racemic) [(R,S)-ketamine, (RS)-2-(2-chlorophenyl)-2-(methylamino)cyclohexanone]
p, Sal vs. drug, Dunnett test: Immobility Time (min 1), Forced Swim Test Day 2 [1]: 0.5849
p, Sal vs. drug, Dunnett test: Immobility Time (min 1-6), Forced Swim Test Day 2 [1]: 0.8314
p, Sal vs. drug, Dunnett test: Immobility Time (min 2), Forced Swim Test Day 2 [1]: 0.9770
p, Sal vs. drug, Dunnett test: Immobility Time (min 4), Forced Swim Test Day 2 [1]: 0.9997
p, Sal vs. drug, Dunnett test: Immobility Time (min 5), Forced Swim Test Day 2 [1]: 0.9999
p, Sal vs. drug, Dunnett test: Immobility Time (min 6), Forced Swim Test Day 2 [1]: 0.9686
p, Sal vs. drug, Dunnett test: Immobility Time Average (min 3-6), Forced Swim Test Day 2 [1]: 0.9990
p, Sal vs. drug, Fisher's PLSD: Immobility Time (min 1-6), Forced Swim Test Day 2 (2.5 mg/kg): 0.1441
p, Sal vs. drug, Fisher's PLSD: Immobility Time Average (min 3-6), Forced Swim Test Day 2 (2.5 mg/kg): 0.3992
* (significance), Sal vs. drug, Dunnett test: Immobility Time (min 1-6), Forced Swim Test Day 2 [2]: ** (** p<0.01)
* (significance), Sal vs. drug, Dunnett test: Immobility Time (min 4), Forced Swim Test Day 2 [2]: * (* p<0.05)
* (significance), Sal vs. drug, Dunnett test: Immobility Time (min 5), Forced Swim Test Day 2 [2]: * (* p<0.05)
* (significance), Sal vs. drug, Dunnett test: Immobility Time Average (min 3-6), Forced Swim Test Day 2 [2]: ** (** p<0.01)
p, Sal vs. drug, Dunnett test: Immobility Time (min 1), Forced Swim Test Day 2 [2]: 0.0825
p, Sal vs. drug, Dunnett test: Immobility Time (min 1-6), Forced Swim Test Day 2 [2]: 0.0006
p, Sal vs. drug, Dunnett test: Immobility Time (min 2), Forced Swim Test Day 2 [2]: 0.0675
p, Sal vs. drug, Dunnett test: Immobility Time (min 4), Forced Swim Test Day 2 [2]: 0.0144
p, Sal vs. drug, Dunnett test: Immobility Time (min 5), Forced Swim Test Day 2 [2]: 0.0149
p, Sal vs. drug, Dunnett test: Immobility Time (min 6), Forced Swim Test Day 2 [2]: 0.3306
p, Sal vs. drug, Dunnett test: Immobility Time Average (min 3-6), Forced Swim Test Day 2 [2]: 0.0062
* (significance), Sal vs. drug, Fisher's PLSD: Immobility Time Average (min 3-6), Forced Swim Test Day 2 [3]: *** (*** p<0.0001)
P, Sal vs. drug, Fisher's PLSD: Immobility Time Average (min 3-6), Forced Swim Test Day 2 [3]: <0.0001
p, Sal vs. drug, Fisher's PLSD: Immobility Time (min 1-6), Forced Swim Test Day 2 (10 mg/kg): 0.1807
p, Sal vs. drug, Fisher's PLSD: Immobility Time Average (min 3-6), Forced Swim Test Day 2 (10 mg/kg): 0.4394
Immobility on FST Day 2, first minute, vs saline (10 mg/kg, injection one hour prior to FST Day 1, female mice): significantly less immobile compared to saline mice; also recorded: significantly less immobile than saline mice during the first minute
p, Sal vs. drug, Dunnett test: Immobility Time (min 1), Forced Swim Test Day 2 [4]: 0.9167
p, Sal vs. drug, Dunnett test: Immobility Time (min 1-6), Forced Swim Test Day 2 [4]: 0.1741
p, Sal vs. drug, Dunnett test: Immobility Time (min 2), Forced Swim Test Day 2 [4]: 0.7390
p, Sal vs. drug, Dunnett test: Immobility Time (min 4), Forced Swim Test Day 2 [4]: 0.4082
p, Sal vs. drug, Dunnett test: Immobility Time (min 5), Forced Swim Test Day 2 [4]: 0.3770
p, Sal vs. drug, Dunnett test: Immobility Time (min 6), Forced Swim Test Day 2 [4]: 0.8643
p, Sal vs. drug, Dunnett test: Immobility Time Average (min 3-6), Forced Swim Test Day 2 [4]: 0.5537
p, Sal vs. drug, Fisher's PLSD: Immobility Time (min 1-6), Forced Swim Test Day 2 (30 mg/kg): 0.0750
p, Sal vs. drug, Fisher's PLSD: Immobility Time Average (min 3-6), Forced Swim Test Day 2 (30 mg/kg): 0.3050
p, Immobility Time (min 1) [5]: 0.9806
p, Immobility Time (min 1-6) [5]: 0.1415
p, Immobility Time (min 3) [5]: 0.9989
p, Immobility Time (min 4) [5]: 0.9991
p, Immobility Time (min 5) [5]: 0.9999
p, Immobility Time (min 6) [5]: 0.9999
p, Immobility Time Average (min 3-6) [5]: 0.9994
* (significance), Immobility Time (min 3) [6]: * (* p<0.05)
p, Immobility Time (min 1) [6]: 0.9957
p, Immobility Time (min 1-6) [6]: 0.2256
p, Immobility Time (min 3) [6]: 0.0470
p, Immobility Time (min 4) [6]: 0.3636
p, Immobility Time (min 5) [6]: 0.2596
p, Immobility Time (min 6) [6]: 0.1488
p, Immobility Time Average (min 3-6) [6]: 0.0733
p, Immobility Time (min 1) [7]: 0.9955
p, Immobility Time (min 1-6) [7]: 0.3435
p, Immobility Time (min 3) [7]: 0.1617
p, Immobility Time (min 4) [7]: 0.9555
p, Immobility Time (min 5) [7]: 0.8239
p, Immobility Time (min 6) [7]: 0.8254
p, Immobility Time Average (min 3-6) [7]: 0.5081
p, Immobility Time (min 1-6), OVX Sal vs OVX drug [8]: 0.0920
p, Immobility Time Average (min 3-6), Fisher's PLSD, OVX Sal vs OVX drug [8]: 0.0570
* (significance), Immobility Time (min 1-6), Sham Sal vs Sham drug [9]: * (* p<0.05)
* (significance), Immobility Time Average (min 3-6), Fisher's PLSD, Sham Sal vs Sham drug [9]: * (* p<0.05)
p, Immobility Time (min 1-6), Sham Sal vs Sham drug [9]: 0.0140
p, Immobility Time Average (min 3-6), Fisher's PLSD, Sham Sal vs Sham drug [9]: 0.0114
* (significance), Immobility Time Average (min 3-6), Fisher's PLSD, Sham drug vs OVX drug [10]: * (* p<0.05)
p, Immobility Time (min 1-6), Sham drug vs OVX drug [10]: 0.0533
p, Immobility Time Average (min 3-6), Fisher's PLSD, Sham drug vs OVX drug [10]: 0.0233
p, Fisher's PLSD, Immobility Time Average (min 3-6), OVX Sal vs. OVX drug (Ovariectomized females, 1 week prophylactic drug, Forced Swim Test Day 2, K (10), (2R,6R)-HNK (0.025), FIG. 5C): 0.7305
p, Fisher's PLSD, Immobility Time Average (min 3-6), E2/P4 Sal vs. E2/P4 drug (Ovariectomized, E2/P4 replacement, 1 week prophylactic drug, Forced Swim Test Day 2, K (10), (2R,6R)-HNK (0.025), FIG. 5F): 0.0196
